The record followed here is ChEMBL document CHEMBL3991601, “The target landscape of clinical kinase drugs” (Science, 2017).

Assay [1] concerns the target MAP kinase-activated protein kinase 2 (Homo sapiens, UniProt P49137).
The target of assay [2] is Cyclin-dependent kinase 13 (Homo sapiens, UniProt Q14004).
The next assay has as its target Deoxycytidine kinase (Homo sapiens, UniProt P27707).
Assay [3] has as its target T1, Serine/threonine-protein kinase D3 (Homo sapiens, UniProt O94806).
T1 sequence (O94806 whole entry): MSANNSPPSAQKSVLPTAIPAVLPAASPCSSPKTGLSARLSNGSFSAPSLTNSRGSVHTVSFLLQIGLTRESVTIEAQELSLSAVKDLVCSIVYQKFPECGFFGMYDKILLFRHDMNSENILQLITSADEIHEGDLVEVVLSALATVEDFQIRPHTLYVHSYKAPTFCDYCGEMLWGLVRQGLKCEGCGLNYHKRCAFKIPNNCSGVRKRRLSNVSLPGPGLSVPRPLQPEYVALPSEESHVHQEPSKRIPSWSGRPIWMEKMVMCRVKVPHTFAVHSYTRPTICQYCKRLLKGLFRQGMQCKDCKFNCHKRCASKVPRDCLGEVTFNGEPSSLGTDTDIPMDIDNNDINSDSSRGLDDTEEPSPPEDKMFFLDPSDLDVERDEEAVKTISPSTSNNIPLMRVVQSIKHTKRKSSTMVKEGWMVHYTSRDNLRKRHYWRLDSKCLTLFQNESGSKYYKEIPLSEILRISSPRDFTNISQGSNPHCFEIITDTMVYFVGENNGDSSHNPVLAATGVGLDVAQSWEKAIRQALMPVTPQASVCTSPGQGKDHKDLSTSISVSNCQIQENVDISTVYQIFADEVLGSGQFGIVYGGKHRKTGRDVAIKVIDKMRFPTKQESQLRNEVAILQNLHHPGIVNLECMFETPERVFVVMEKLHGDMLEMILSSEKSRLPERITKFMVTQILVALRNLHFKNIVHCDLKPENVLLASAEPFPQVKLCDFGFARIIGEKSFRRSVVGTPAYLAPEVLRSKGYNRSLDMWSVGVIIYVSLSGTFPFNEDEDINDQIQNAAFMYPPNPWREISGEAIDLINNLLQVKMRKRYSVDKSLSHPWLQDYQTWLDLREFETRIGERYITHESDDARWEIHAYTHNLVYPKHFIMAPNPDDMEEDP

The target of assay [4] is T2, Acyl-CoA dehydrogenase family member 10 (Homo sapiens, UniProt Q6JQN1).
T2 sequence (Q6JQN1 whole entry): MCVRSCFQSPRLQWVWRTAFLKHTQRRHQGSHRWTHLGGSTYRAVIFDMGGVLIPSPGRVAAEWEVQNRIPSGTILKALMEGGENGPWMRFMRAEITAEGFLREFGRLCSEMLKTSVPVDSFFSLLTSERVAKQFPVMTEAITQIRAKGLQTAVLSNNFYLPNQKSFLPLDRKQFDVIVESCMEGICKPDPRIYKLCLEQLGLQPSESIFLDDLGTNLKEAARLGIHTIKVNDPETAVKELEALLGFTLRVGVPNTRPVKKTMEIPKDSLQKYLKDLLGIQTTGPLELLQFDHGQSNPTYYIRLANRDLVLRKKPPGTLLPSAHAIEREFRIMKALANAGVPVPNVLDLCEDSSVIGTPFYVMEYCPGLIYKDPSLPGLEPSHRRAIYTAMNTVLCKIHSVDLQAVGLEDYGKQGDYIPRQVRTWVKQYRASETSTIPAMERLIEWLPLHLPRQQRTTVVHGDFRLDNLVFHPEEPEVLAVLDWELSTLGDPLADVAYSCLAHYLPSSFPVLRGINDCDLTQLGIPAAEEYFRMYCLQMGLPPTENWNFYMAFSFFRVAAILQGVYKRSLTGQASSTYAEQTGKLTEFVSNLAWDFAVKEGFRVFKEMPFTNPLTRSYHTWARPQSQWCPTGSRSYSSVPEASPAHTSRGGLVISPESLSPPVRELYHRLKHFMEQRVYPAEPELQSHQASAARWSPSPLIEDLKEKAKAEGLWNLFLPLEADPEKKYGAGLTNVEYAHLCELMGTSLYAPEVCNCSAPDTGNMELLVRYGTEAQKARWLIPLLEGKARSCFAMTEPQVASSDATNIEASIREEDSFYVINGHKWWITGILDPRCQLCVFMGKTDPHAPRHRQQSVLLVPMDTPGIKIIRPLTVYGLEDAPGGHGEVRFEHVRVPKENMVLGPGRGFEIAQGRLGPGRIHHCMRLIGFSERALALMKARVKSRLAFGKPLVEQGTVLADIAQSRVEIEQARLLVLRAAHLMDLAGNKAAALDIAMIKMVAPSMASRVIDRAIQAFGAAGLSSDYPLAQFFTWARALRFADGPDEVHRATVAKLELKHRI

Assay [5] deals with Mitogen-activated protein kinase kinase kinase 1 (Homo sapiens, UniProt Q13233).
Assay [6] deals with Insulin-like growth factor 1 receptor (Homo sapiens, UniProt P08069).
A further assay has as its target Ephrin type-A receptor 2 (Homo sapiens, UniProt P29317).
Assay [7] addresses T3, Ras-related protein Rab-27A (Homo sapiens, UniProt P51159).
T3 sequence (P51159 whole entry): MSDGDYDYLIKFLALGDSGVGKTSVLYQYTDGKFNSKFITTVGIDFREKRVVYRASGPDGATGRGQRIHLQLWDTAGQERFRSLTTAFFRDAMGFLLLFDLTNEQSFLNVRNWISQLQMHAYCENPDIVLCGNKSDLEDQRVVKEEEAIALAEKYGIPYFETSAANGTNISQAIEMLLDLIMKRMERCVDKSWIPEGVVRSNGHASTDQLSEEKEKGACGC

The target of assay [8] is T4, Calcium/calmodulin-dependent protein kinase type IV (Homo sapiens, UniProt Q16566).
T4 sequence (Q16566 whole entry): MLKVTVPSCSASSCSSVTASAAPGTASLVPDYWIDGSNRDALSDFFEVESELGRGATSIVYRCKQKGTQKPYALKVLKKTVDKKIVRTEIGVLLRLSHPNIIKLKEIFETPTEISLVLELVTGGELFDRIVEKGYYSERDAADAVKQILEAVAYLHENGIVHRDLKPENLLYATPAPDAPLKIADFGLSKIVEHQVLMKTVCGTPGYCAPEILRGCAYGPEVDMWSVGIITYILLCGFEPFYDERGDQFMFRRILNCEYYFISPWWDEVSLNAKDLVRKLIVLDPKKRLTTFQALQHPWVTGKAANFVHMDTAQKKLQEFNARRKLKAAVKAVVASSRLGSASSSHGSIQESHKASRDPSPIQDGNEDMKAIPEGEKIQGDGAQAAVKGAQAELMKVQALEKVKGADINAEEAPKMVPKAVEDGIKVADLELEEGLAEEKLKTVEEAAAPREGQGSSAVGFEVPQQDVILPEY

Each structure is given as a SMILES string. The source made the active and inactive calls. Cut-off read from the data, not from the text of the source, for most assays here: actives have a measured Kd and inactives only a lower limit.

One may read the Kd as the equilibrium constant for the complex coming apart.
Note: in the data inactive means no Kd found up to 30 µM.

Chain of Cyclin-dependent kinase 13 (Q14004 whole entry): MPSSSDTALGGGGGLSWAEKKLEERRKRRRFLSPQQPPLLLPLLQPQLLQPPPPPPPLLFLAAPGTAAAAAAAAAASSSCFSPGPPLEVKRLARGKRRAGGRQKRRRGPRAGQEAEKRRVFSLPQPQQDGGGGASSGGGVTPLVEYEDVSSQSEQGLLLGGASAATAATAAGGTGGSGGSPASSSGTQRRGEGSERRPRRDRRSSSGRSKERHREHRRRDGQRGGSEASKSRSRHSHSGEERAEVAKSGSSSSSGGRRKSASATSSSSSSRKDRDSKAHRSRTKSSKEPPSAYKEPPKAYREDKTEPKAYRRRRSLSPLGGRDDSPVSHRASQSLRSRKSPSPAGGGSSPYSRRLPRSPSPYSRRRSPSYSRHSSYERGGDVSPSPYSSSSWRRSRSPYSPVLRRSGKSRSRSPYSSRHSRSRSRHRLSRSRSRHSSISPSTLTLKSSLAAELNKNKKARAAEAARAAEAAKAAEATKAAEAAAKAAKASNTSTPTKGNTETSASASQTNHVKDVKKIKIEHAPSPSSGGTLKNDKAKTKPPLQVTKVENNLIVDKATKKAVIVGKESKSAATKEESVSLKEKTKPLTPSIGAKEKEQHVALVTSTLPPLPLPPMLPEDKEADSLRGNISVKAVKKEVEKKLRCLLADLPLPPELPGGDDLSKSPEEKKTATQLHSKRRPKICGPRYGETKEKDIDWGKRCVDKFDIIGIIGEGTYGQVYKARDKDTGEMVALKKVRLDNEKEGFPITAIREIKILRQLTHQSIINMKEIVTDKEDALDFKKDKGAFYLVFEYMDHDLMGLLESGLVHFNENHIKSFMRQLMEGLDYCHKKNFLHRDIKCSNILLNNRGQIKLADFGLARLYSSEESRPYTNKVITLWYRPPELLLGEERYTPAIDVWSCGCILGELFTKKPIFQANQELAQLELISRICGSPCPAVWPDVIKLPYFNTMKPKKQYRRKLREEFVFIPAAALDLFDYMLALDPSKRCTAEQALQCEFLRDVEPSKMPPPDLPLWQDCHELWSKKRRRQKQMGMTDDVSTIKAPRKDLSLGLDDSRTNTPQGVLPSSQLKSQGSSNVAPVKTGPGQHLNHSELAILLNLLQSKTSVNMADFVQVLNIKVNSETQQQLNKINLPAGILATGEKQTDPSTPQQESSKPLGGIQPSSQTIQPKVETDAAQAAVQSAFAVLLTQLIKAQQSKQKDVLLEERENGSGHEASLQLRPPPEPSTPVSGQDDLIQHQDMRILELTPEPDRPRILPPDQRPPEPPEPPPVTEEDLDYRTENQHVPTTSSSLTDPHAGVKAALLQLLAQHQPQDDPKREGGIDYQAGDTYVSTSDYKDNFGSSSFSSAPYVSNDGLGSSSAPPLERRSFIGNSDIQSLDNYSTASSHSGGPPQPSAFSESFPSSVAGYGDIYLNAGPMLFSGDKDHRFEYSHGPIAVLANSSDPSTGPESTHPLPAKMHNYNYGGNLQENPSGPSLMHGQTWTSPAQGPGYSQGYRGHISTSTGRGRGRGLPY
Chain of Deoxycytidine kinase (P27707 whole entry): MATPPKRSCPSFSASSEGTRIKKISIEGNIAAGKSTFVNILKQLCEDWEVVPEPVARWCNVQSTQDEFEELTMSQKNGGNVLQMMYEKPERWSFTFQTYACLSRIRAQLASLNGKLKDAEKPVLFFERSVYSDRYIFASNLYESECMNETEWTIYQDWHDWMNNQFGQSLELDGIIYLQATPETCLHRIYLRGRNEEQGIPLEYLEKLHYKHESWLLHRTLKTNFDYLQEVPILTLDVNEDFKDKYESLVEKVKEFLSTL
Chain of MAP kinase-activated protein kinase 2 (P49137 whole entry): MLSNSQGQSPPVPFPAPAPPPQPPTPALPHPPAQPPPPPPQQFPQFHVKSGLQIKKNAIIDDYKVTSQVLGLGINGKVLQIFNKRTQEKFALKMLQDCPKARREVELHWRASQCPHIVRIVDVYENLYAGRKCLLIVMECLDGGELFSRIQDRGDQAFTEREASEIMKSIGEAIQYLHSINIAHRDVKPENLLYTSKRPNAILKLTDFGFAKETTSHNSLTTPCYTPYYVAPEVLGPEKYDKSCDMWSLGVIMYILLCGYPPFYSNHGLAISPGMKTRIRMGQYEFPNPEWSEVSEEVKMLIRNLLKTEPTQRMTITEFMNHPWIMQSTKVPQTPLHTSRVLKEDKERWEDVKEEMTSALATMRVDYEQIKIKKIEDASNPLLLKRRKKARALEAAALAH
Chain of Mitogen-activated protein kinase kinase kinase 1 (Q13233 whole entry): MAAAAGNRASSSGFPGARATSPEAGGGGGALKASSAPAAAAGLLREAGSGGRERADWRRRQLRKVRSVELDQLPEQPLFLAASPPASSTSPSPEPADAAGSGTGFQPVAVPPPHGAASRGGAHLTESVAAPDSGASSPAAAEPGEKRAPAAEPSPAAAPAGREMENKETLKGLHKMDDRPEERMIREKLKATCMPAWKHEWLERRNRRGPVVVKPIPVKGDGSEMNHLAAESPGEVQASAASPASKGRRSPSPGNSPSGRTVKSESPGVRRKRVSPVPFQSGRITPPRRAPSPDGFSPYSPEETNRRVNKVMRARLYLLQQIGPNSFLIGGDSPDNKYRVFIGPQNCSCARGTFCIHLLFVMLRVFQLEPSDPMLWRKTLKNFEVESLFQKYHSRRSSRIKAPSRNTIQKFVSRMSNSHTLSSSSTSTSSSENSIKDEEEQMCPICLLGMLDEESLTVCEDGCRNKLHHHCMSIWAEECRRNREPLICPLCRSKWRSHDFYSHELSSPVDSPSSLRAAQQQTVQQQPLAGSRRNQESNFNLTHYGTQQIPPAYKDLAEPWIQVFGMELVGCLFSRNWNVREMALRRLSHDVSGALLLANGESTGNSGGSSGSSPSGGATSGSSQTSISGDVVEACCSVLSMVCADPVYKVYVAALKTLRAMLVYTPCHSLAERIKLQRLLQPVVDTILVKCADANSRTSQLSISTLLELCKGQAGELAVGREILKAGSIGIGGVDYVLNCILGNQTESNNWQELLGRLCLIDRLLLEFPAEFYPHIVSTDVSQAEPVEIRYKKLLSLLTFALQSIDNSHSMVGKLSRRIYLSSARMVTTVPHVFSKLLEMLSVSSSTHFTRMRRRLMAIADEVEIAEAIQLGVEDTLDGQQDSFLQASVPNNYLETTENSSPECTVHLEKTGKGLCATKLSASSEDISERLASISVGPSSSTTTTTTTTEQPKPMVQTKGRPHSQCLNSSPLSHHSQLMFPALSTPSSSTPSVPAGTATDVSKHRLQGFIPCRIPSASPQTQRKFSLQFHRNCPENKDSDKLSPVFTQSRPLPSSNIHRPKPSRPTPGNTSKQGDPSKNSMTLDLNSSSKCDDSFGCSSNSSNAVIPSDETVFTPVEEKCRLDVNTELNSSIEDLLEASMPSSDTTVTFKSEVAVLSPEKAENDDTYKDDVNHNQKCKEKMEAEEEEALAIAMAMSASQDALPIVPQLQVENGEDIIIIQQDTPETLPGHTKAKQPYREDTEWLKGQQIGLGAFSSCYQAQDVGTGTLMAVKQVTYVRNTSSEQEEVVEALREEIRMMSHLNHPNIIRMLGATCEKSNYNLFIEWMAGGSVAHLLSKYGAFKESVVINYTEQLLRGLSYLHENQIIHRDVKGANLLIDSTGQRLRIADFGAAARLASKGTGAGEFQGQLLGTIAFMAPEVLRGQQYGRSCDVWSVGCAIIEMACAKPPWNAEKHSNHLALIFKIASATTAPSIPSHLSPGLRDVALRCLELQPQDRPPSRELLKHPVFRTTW
Chain of Insulin-like growth factor 1 receptor (P08069 31-736 limits assumed): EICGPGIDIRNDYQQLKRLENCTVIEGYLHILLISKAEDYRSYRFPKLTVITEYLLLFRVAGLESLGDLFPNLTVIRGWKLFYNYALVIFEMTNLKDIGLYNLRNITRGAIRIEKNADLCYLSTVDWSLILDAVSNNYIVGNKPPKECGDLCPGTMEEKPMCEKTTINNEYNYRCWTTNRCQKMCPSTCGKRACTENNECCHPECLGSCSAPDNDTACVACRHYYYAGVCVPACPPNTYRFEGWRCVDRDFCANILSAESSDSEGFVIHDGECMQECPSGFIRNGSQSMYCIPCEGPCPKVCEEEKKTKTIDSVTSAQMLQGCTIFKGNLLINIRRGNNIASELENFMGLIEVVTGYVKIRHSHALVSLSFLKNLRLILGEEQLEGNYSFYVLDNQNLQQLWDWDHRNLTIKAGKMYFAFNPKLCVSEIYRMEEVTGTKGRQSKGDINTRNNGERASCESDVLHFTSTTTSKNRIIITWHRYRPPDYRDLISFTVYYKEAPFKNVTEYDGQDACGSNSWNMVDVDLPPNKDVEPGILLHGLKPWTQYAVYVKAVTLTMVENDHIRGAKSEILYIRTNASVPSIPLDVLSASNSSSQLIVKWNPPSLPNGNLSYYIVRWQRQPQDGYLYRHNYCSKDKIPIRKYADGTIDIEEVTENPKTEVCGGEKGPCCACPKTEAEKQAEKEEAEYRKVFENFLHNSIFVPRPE
Chain of Insulin-like growth factor 1 receptor (P08069 741-1367 limits assumed): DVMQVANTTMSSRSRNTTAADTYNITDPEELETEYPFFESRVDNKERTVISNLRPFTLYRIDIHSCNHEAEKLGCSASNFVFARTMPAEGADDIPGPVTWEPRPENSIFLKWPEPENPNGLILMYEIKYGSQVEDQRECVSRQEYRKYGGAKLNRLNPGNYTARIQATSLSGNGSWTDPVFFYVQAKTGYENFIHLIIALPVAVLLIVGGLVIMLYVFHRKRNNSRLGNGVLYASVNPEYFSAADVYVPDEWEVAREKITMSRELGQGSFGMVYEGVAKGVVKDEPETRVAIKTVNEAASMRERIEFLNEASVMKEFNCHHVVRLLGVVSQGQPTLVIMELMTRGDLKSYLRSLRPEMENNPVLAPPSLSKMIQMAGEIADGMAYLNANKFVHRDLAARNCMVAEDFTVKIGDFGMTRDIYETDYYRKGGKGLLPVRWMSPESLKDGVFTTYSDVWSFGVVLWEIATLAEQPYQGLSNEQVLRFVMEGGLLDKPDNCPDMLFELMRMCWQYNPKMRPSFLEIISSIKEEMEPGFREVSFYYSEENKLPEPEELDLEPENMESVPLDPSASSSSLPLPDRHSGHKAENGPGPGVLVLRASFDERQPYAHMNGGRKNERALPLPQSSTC

Take `Cc1nc(NC(=O)N2CCC[C@H]2C(N)=O)sc1-c1ccnc(C(C)(C)C(F)(F)F)c1` [ALPELISIB]: the Kd (in assay [1]; in [2]; at Deoxycytidine kinase; in [3]; in assay [4]; in [5]) was > 30 µM (inactive) throughout. The Kd (in assay [6]; at Ephrin type-A receptor 2) was > 30 µM (inactive) throughout.

On to `O=C(Nc1c[nH]nc1-c1nc2cc(CN3CCOCC3)ccc2[nH]1)NC1CC1` [AT-9283], for which the Kd (in assay [1]; on Deoxycytidine kinase; in assay [7]; in [6]; in assay [8]) was > 30 µM (inactive) each time.

On to `C=CC(=O)Nc1cc2c(Nc3ccc(F)c(Cl)c3)ncnc2cc1C#CC(C)(C)N1CCN(C)CC1` [AV-412 FREE BASE], for which the Kd (in assay [1]; in assay [2]; on Deoxycytidine kinase; in assay [7]; in assay [3]; in [4]) was > 30 µM (inactive) in each case. For the same compound, the Kd in assay [5] is 7.96 µM (active); in [6], > 30 µM (inactive); at Ephrin type-A receptor 2 it was > 30 µM (inactive).

Regarding `COc1cc([C@@H]2c3cc4c(cc3[C@H](O)[C@H]3COC(=O)[C@@H]23)OCO4)cc(OC)c1OC` [AXL-1717], the Kd (in [1]; at Deoxycytidine kinase; in [7]; in [3]; in [5]; in assay [6]) was > 30 µM (inactive) in each case. Besides, the Kd (on Ephrin type-A receptor 2; in [8]) was > 30 µM (inactive) throughout.

As for `Cc1cc(C(=O)NOCCO)c(Nc2ccc(I)cc2F)n(C)c1=O` [AZD-8330], the Kd (in assay [1]; in assay [2]; at Deoxycytidine kinase; in assay [7]; in [3]; in assay [5]) was > 30 µM (inactive) throughout. The Kd (in assay [6]; at Ephrin type-A receptor 2; in [8]) was > 30 µM (inactive) each time.

`COc1cc2ncnc(Oc3cccc(NC(=O)Nc4cc(C(C)(C)C(F)(F)F)on4)c3)c2cc1OC` [CEP-32496]: the Kd in [1] is 0.49 µM (active); in assay [2] it was > 30 µM (inactive); on Deoxycytidine kinase, > 30 µM (inactive); in [7], > 30 µM (inactive); in assay [3], > 30 µM (inactive); in assay [4], > 30 µM (inactive). Also, the Kd in [5], in [6] and in [8] was > 30 µM (inactive) in each case.

In the case of `CN(C[C@@H]1COCCO1)S(=O)(=O)Nc1ccc2ccc3ncc(-c4cnn(C)c4)cc3c(=O)c2c1` [MK-2461], the Kd (in assay [1]; in [2]; at Deoxycytidine kinase; in [7]; in [3]; in [5]) was > 30 µM (inactive) in each case. The Kd (in assay [6]; on Ephrin type-A receptor 2; in [8]) was > 30 µM (inactive) in each case.

As to `COc1ncc(-c2ccc3nccc(-c4ccnnc4)c3c2)cc1NS(=O)(=O)c1ccc(F)cc1F` [OMIPALISIB], the Kd (in [1]; in [2]; on Deoxycytidine kinase; in assay [7]; in [3]; in assay [5]) was > 30 µM (inactive) in each case. For the same compound, the Kd (in assay [6]; on Ephrin type-A receptor 2; in [8]) was > 30 µM (inactive) each time.

In the case of `CCS(=O)(=O)c1cccc(-c2cc(C(=O)NC3CCN(C)CC3)c(C)c3[nH]c4ncc(C)cc4c23)c1` [TAK-901], the Kd (in [1]; in assay [2]; on Deoxycytidine kinase; in assay [7]; in assay [3]; in assay [5]) was > 30 µM (inactive) throughout. Moreover, the results for the Kd (in [6]; on Ephrin type-A receptor 2; in [8]) were > 30 µM (inactive), 0.178 µM (active) and > 30 µM (inactive), respectively.

As to `Cn1ncc(Cl)c1-c1cc(C(=O)N[C@H](CN)Cc2ccc(F)c(F)c2)oc1Cl` [UPROSERTIB], the Kd in [1] was > 30 µM (inactive); in [2], > 30 µM (inactive); at Deoxycytidine kinase, > 30 µM (inactive); in [7], > 30 µM (inactive); in assay [3], 2.64 µM (active); in assay [5] it was > 30 µM (inactive). Further, the Kd (in assay [6]; on Ephrin type-A receptor 2) was > 30 µM (inactive) each time.

As to `C[C@@H](N)c1ccc(C(=O)Nc2ccnc3[nH]ccc23)cc1` [Y-39983], the Kd (in assay [1]; in assay [2]; at Deoxycytidine kinase; in assay [7]; in [5]; in [6]) was > 30 µM (inactive) each time. In addition, the Kd (on Ephrin type-A receptor 2; in assay [8]) was > 30 µM (inactive) in each case.

As for `CN1C/C=C/CCOc2cccc(c2)-c2ccnc(n2)Nc2cccc(c2)C1` [ZOTIRACICLIB], the Kd was > 30 µM (inactive) in [1]; > 30 µM (inactive) in assay [2]; > 30 µM (inactive) at Deoxycytidine kinase; > 30 µM (inactive) in assay [7]; 0.557 µM (active) in assay [3]; > 30 µM (inactive) in assay [5]. Also, the Kd (in assay [6]; at Ephrin type-A receptor 2; in assay [8]) was > 30 µM (inactive) throughout.
